Laboratory results from patent publication US11931347B2, “Method of screening for agents for differentiating stem cells” (MINERVA BIOTECHNOLOGIES CORPORATION, priority 2015, dated 2024).

Legend:
[1] = system: human naïve state stem cells; assay: stem cell drug screening assay on naïve state stem cells; format: cell-based; conditions: 500 nM or 1 uM, cells from NME7AB or NME1 dimers, growth factor absent
T47D breast cancer cells = assay: cancer cell proliferation assay (Calcein live cell stain); format: cell-based, human; conditions: live cell Calcein stain, 96 hours (FIG. 113)

## Cc1sc2c(c1C)C(c1ccc(Cl)cc1)=N[C@@H](CC(=O)OC(C)(C)C)c1nnc(C)n1-2 [JQ1+, JQ1]
[1]
  effect on naïve stem cell differentiation and growth: dramatically induced differentiation
[1]; listed as JQI
  effect on naïve stem cell differentiation and growth: inhibitory effect
T47D breast cancer cells
  inhibition of growth of T47D cells: inhibited growth
